Measurements from patent US20090264345A1, “MACROCYCLIC PEPTIDES AND METHODS FOR MAKING AND USING THEM” (priority 2006, published 2009).
Read-outs that look alike come from different tables or passages of the source.

Tests used:
MSS colon cancers = conditions: drug of choice for MSS colon cancers; cited from earlier work
[1] = amide bond, 15-membered ring, DEPBT/HATU/TBTU/DIEA, THF/MeCN/CH2Cl2 2:2:1, 7.0 mM, 2 steps
[2] = tested on: virus-encoded topoisomerase I; conditions: poxvirus MCV; Hwang et al. 1999; cited from earlier work

In the case of O=c1[nH]cc(F)c(=O)[nH]1 [5-fluorouracil], the IC50 (MSS colon cancers) is listed as 5 µM.

In the case of CC(C)C[C@@H]1NC(=O)[C@H](Cc2ccccc2)NC(=O)[C@H](CC(C)C)NC(=O)[C@H](C(C)C)NC(=O)[C@H](CC(C)C)NC1=O [cyclo[-Phe-Leu-Val-Leu-Leu-]], the ring closure, isolated yield ([1]; from H-Leu-Leu-Val-Leu-Phe-OH?) is reported as 65%.

In the case of CC(C)C[C@@H]1NC(=O)[C@H](Cc2ccccc2)NC(=O)[C@H](CC(C)C)NC(=O)[C@H](C(C)C)NC(=O)[C@@H](CC(C)C)NC1=O [cyclo[-Phe-Leu-Val-Xaa-Leu-] (Xaa-4 DLeu)], the ring closure, isolated yield ([1]; from H-Leu-dLeu-Val-Leu-Phe-OH?) is reported as 53%.

For CC(C)C[C@@H]1NC(=O)[C@H](C(C)C)NC(=O)[C@@H](CC(C)C)NC(=O)[C@@H](CC(C)C)NC(=O)[C@H](Cc2ccccc2)NC1=O [cyclo[-Phe-Leu-Val-Xaa-Xaa-] (Xaa-4 DLeu, Xaa-5 DLeu)], the ring closure, isolated yield ([1]; from H-dLeu-dLeu-Val-Leu-Phe-OH?) was 35%.

Work on CC(C)C[C@@H]1NC(=O)[C@H](C(C)C)NC(=O)[C@H](CC(C)C)N(C)C(=O)[C@@H](CC(C)C)NC(=O)[C@H](Cc2ccccc2)NC1=O [cyclo[-Phe-Leu-Val-Xaa-Xaa-] (Xaa-4 NMeLeu, Xaa-5 DLeu)] yielded a ring closure, isolated yield ([1]; from H-dLeu-MeLeu-Val-Leu-Phe-OH?) of 40%.

Work on CC(C)C[C@@H]1NC(=O)[C@H](Cc2ccccc2)NC(=O)[C@H](CC(C)C)NC(=O)[C@@H](C(C)C)NC(=O)[C@H](CC(C)C)NC1=O [cyclo[-Phe-Leu-Xaa-Leu-Leu-] (Xaa-3 DVal)] yielded a ring closure, isolated yield ([1]; from H-Leu-Leu-dVal-Leu-Phe-OH?) of 65%.

CC(C)C[C@@H]1NC(=O)[C@H](Cc2ccccc2)NC(=O)[C@@H](CC(C)C)NC(=O)[C@H](C(C)C)NC(=O)[C@H](CC(C)C)NC1=O [cyclo[-Phe-Xaa-Val-Leu-Leu-] (Xaa-2 DLeu)] gave a ring closure, isolated yield ([1]; from H-Leu-Leu-Val-dLeu-Phe-OH?) of 85%.

CC(C)C[C@@H]1NC(=O)[C@H](Cc2ccccc2)NC(=O)[C@@H](CC(C)C)N(C)C(=O)[C@H](C(C)C)NC(=O)[C@H](CC(C)C)NC1=O [cyclo[-Phe-Xaa-Val-Leu-Leu-] (Xaa-2 DNMeLeu)] gave a ring closure, isolated yield ([1]; from H-Leu-Leu-Val-dMeLeu-Phe-OH?) of 81%.

Molecule CC(C)C[C@@H]1NC(=O)[C@H](CC(C)C)NC(=O)[C@@H](Cc2ccccc2)NC(=O)[C@H](CC(C)C)NC(=O)[C@H](C(C)C)NC1=O [cyclo[-Xaa-Leu-Val-Leu-Leu-] (Xaa-1 DPhe)] has a ring closure, isolated yield ([1]; from H-Leu-Leu-Val-Leu-dPhe-OH?) of 39%.

In the case of CC(C)C[C@@H]1NC(=O)[C@H](CC(C)C)NC(=O)[C@@H](Cc2ccccc2)NC(=O)[C@@H](CC(C)C)NC(=O)[C@H](C(C)C)NC1=O [cyclo[-Xaa-Xaa-Val-Leu-Leu-] (Xaa-1 DPhe, Xaa-2 DLeu)], the ring closure, isolated yield ([1]; from H-Leu-Leu-Val-dLeu-dPhe-OH?) is reported as 37%.

In the case of Sansalvamide A [San A], the “inhibition of topoisomerase I” value [2] is given as “inhibitor”.
